The values that follow come from ChEMBL document CHEMBL1926682, “Triterpene galactosides of the pouoside class and corresponding aglycones from the sponge Lipastrotethya sp” (J Nat Prod, 2011).

≈ marks a conversion by molar mass, not a printed value.

The first assay has as its system K562. Description: Cytotoxicity against human K562 cells by spectrophotometric analysis. It counts as functional, cell-based.
Details: not given
`CC(=O)O[C@H]1[C@H](O[C@H]2CC[C@](C)(OC(C)=O)[C@@H](CC/C(C)=C/C[C@H](/C=C(\C)[C@H](C[C@@H]3C(C)=CCC(=O)C3(C)C)OC(C)=O)OC(C)=O)C2(C)C)O[C@H](CO)[C@H](O)[C@@H]1O` [POUOSIDE D]: the IC50 (usually the concentration that gives 50% inhibition) turned out to be 12.5 µM.
Turning to `CC(=O)O[C@@H](C[C@H]1C(C)(C)C(=O)C=C[C@]1(C)O)/C(C)=C/[C@H](O)C/C=C(\C)CC[C@H]1C(C)(C)[C@@H](O[C@@H]2O[C@H](CO)[C@H](O)[C@H](O)[C@H]2O)CC[C@]1(C)OC(C)=O` [POUOSIDE G], the IC50 was greater than 100 µM.
For `CC(=O)O[C@@H](C[C@@H]1C(C)=CCC(=O)C1(C)C)/C(C)=C/[C@H](O)C/C=C(\C)CC[C@H]1C(C)(C)[C@@H](O)CC[C@]1(C)OC(C)=O` [POUOGENIN C], inhibition was half-maximal at 14.6 µM (IC50).
Same read-out and setting: as for `CC(=O)O[C@@]1(C)CC[C@H](O[C@@H]2O[C@H](CO)[C@H](O)[C@H](O)[C@H]2O)C(C)(C)[C@@H]1CC/C(C)=C/C[C@@H](O)/C=C(\C)C(=O)C[C@H]1C(C)(C)C(=O)C=C[C@]1(C)O` [POUOSIDE H], the figure is greater than 100 µM.
On the same count and under the same terms, as for `CC(=O)O[C@@]1(C)CC[C@H](O)C(C)(C)[C@@H]1CC/C(C)=C/C[C@@H](O)/C=C(\C)C(=O)C[C@H]1C(C)(C)C(=O)C=C[C@]1(C)O` [POUOGENIN E], the figure is 18.9 µM; as for `CC(=O)O[C@@H](C[C@@H]1C(C)=CCC(=O)C1(C)C)/C(C)=C/[C@@H](C/C=C(\C)CC[C@H]1C(C)(C)[C@@H](O)CC[C@]1(C)OC(C)=O)OC(C)=O` [POUOGENIN B], 38.9 µM.
Compound `CC(=O)O[C@@H](C[C@@H]1C(C)=CCC(=O)C1(C)C)/C(C)=C/[C@H](O)C/C=C(\C)CC[C@H]1C(C)(C)[C@@H](O[C@@H]2O[C@H](CO)[C@H](O)[C@H](O)[C@H]2O)CC[C@]1(C)OC(C)=O` [POUOSIDE B] gave a half-inhibitory concentration (IC50) greater than 100 µM.
The same measure, in the same setting: in the case of `C=C1CC[C@H](O[C@@H]2O[C@H](CO)[C@H](O)[C@H](O)[C@H]2O)C(C)(C)[C@@H]1CC/C(C)=C/C[C@H](/C=C(\C)[C@H](C[C@@H]1C(C)=CCC(=O)C1(C)C)OC(C)=O)OC(C)=O` [POUOSIDE I] it was greater than 100 µM; in that of `CC(=O)O[C@@H](C[C@H]1C(C)(C)C(=O)C=C[C@]1(C)O)/C(C)=C/[C@H](O)C/C=C(\C)CC[C@H]1C(C)(C)[C@@H](O)CC[C@]1(C)OC(C)=O` [POUOGENIN D], 27.5 µM.
`CC(=O)O[C@@]1(C)CC[C@H](O[C@@H]2O[C@H](CO)[C@H](O)[C@H](O)[C@H]2O)C(C)(C)[C@@H]1CC/C(C)=C/C[C@@H](O)/C=C(\C)[C@@H](O)C[C@@H]1C(C)=CCC(=O)C1(C)C` [POUOSIDE F] gave an IC50 greater than 100 µM.
The compound `CC(=O)O[C@@]1(C)CC[C@H](O)C(C)(C)[C@@H]1CC/C(C)=C/C[C@@H](O)/C=C(\C)[C@@H](O)C[C@@H]1C(C)=CCC(=O)C1(C)C` [POUOGENIN A] had an IC50 of 14.8 µM.
`COc1cccc2c1C(=O)c1c(O)c3c(c(O)c1C2=O)C[C@@](O)(C(=O)CO)C[C@@H]3O[C@H]1C[C@H](N)[C@H](O)[C@H](C)O1` [DOXORUBICIN] came in with an IC50 of 13.6 µM.
Take `CC(=O)O[C@@H](C[C@@H]1C(C)=CCC(=O)C1(C)C)/C(C)=C/[C@@H](C/C=C(\C)CC[C@H]1C(C)(C)[C@@H](O[C@@H]2O[C@H](CO)[C@H](O)[C@H](O)[C@H]2O)CC[C@]1(C)OC(C)=O)OC(C)=O` [POUOSIDE A]: the IC50 was found to be 17 µM.

In another assay the test system is P388. In words: Cytotoxicity against mouse P388 cells. The class given is functional. The note with it: read-out: ED50 (the source's name).
Consider `CC(=O)O[C@@H](C[C@@H]1C(C)=CCC(=O)C1(C)C)/C(C)=C/[C@@H](C/C=C(\C)CC[C@H]1C(C)(C)[C@@H](O[C@@H]2O[C@H](CO)[C@H](O)[C@H](O)[C@H]2O)CC[C@]1(C)OC(C)=O)OC(C)=O` [POUOSIDE A], for which the EC50 came out at 1.5 µg/mL (≈ 1.93 µM).
